Laboratory results: patent US5656662A, “Synthesis of optically pure 4-alkenyl- or 4-alkanyl-2-hydroxytetronic acids” (The Ohio State University Research Foundation, priority 1995, dated 1997)

Tests used:
[1] = test system: purified human monocytes; experiment: Chemotactic response of purified human monocytes; format: cell-based; design: key: NE: No effect; INHIB: Inhibition; STIM: Stimulation; IC40: 40% Inhibitory Concentration; EC50: 50% Effective Concentration; TC: Tolerated Concentration; IA: Interferes with Assay; settings: STIMULATED
Description: This assay measures the ability of test compounds to modulate the chemotactic response of purified human monocytes in response to a chemoattractant. Compounds are tested at four dilutions over a range of three log10 concentrations. The test compounds are combined with monocytes labeled with a fluorescent indicator and placed in the top wells of a chemotaxis chamber, above an optimized concentration of a monocyte chemoattractant placed in the wells below, and separated by a microporous filter. After sixty minutes, the migration of cells through the filter is quantified flurorometrically, and expressed in relation to spontaneous and maximum controls. All tests are carried out in triplicate.

[2] = test system: GM-CSF; experiment: GM-CSF expression from purified human monocytes; format: cell-based; design: key: NE: No effect; INHIB: Inhibition; STIM: Stimulation; IC40: 40% Inhibitory Concentration; EC50: 50% Effective Concentration; TC: Tolerated Concentration; IA: Interferes with Assay
Description: This assay determines the effect of test compounds on the expression of GM-CSF from purified human monocytes. Compounds are tested for their ability to downregulate the production of GM-CSF in activated monocytes, or upregulate secretion of GM-CSF in unstimulated monocytes. Test compounds are incubated for sixteen hours with purified human monocytes at four dilutions over a range of three log10 concentrations. Where appropriate, lipopolysaccharide (LPS) is used to stimulate the monocytes.
The level of GM-CSF in the resultant supernatants is quantitated in a solid phase Enzyme-linked Immunoassay (EIA) performed in a 96 well format. GM-CSF present in the samples is captured by a specific monoclonal antibody immobilized on the well, and probed with an anti-GM-CSF polyclonal antibody conjugated to horseradish peroxidase, followed by an appropriate substrate. The levels of GM- CSF are determined by interpolation of the resultant color change in the substrate from a standard curve. All supernatants are tested in duplicate with controls and standards.

CCCCCCCCCCCCCC/C=C\CC[C@@H]1OC(=O)C(O)=C1O [(S)-3,4-Dihydroxy-5-[(Z)-3-octadecenyl]-2(5H)-furanone]
NE: EFFECT on CHEMOTAXIS [1] | EFFECT on GMCSF ([2]; STIMULATED) | EFFECT on GMCSF ([2]; UNSTIMULATED)
